According to ChEMBL document CHEMBL3351916, “Synthesis and cytotoxic evaluation of novel ester-triazole-linked triterpenoid-AZT conjugates” (Bioorg Med Chem Lett, 2014):

Legend:
[1] = test system: HepG2; assay: Cytotoxicity against human HepG2 cells; assay type: functional, cell-based
[2] = test system: KB; assay: Cytotoxicity against human KB cells; assay type: functional, cell-based

`C=C(C)[C@@H]1CC[C@]2(C(=O)O)CC[C@]3(C)[C@H](CC[C@@H]4[C@@]5(C)CC[C@@H](O)[C@@](C)(C(=O)O)[C@@H]5CC[C@]43C)[C@@H]12` showed an IC50 [1] of 223 µM and an IC50 [2] of 110 µM.

With `C#CCOC(=O)[C@]12CC[C@@H](C(=C)C)[C@@H]1[C@H]1CC[C@@H]3[C@@]4(C)CC[C@H](O)C(C)(C)[C@@H]4CC[C@@]3(C)[C@]1(C)CC2` the IC50 [1] was 114 µM and the IC50 [2] was over 259 µM.

`C=C(C)[C@@H]1CC[C@]2(C(=O)O)CC[C@]3(C)[C@H](CC[C@@H]4[C@@]5(C)CCC(=O)[C@H](C)[C@@H]5CC[C@]43C)[C@@H]12` gave an IC50 [1] of 11.2 µM and an IC50 [2] of 7.7 µM.

`C#CCOC(=O)[C@]12CC[C@@H](C(=C)C)[C@@H]1[C@H]1CC[C@@H]3[C@@]4(C)CC[C@H](OC(=O)CCC(=O)O)C(C)(C)[C@@H]4CC[C@@]3(C)[C@]1(C)CC2` was tested, and the IC50 [1] was 49.9 µM and the IC50 [2] was 22.2 µM.

`C#CCOC(=O)[C@]12CC[C@@H](C(=C)C)[C@@H]1[C@H]1CC[C@@H]3[C@@]4(C)CC[C@H](OC(=O)CCCC(=O)O)C(C)(C)[C@@H]4CC[C@@]3(C)[C@]1(C)CC2` gave an IC50 [1] of 19.9 µM and an IC50 [2] of 28.7 µM.

With `C#CCOC(=O)[C@]12CC[C@@H](C(=C)C)[C@@H]1[C@H]1CC[C@@H]3[C@@]4(C)CC[C@H](OC(=O)CC(C)CC(=O)O)C(C)(C)[C@@H]4CC[C@@]3(C)[C@]1(C)CC2` (stereo partly specified) the IC50 [1] was 129 µM and the IC50 [2] was 12.5 µM.

In the case of `C=C(C)[C@@H]1CC[C@]2(C(=O)OCc3cn([C@H]4C[C@H](n5cc(C)c(=O)[nH]c5=O)O[C@@H]4CO)nn3)CC[C@]3(C)[C@H](CC[C@@H]4[C@@]5(C)CC[C@H](O)C(C)(C)[C@@H]5CC[C@]43C)[C@@H]12`, the IC50 [1] is reported as 7 µM and the IC50 [2] is reported as 5.9 µM.

Compound `C=C(C)[C@@H]1CC[C@]2(C(=O)OCc3cn([C@H]4C[C@H](n5cc(C)c(=O)[nH]c5=O)O[C@@H]4CO)nn3)CC[C@]3(C)[C@H](CC[C@@H]4[C@@]5(C)CC[C@H](OC(=O)CCC(=O)O)C(C)(C)[C@@H]5CC[C@]43C)[C@@H]12` has an IC50 [1] of 20.6 µM and an IC50 [2] of 24.7 µM.

Work on `C=C(C)[C@@H]1CC[C@]2(C(=O)OCc3cn([C@H]4C[C@H](n5cc(C)c(=O)[nH]c5=O)O[C@@H]4CO)nn3)CC[C@]3(C)[C@H](CC[C@@H]4[C@@]5(C)CC[C@H](OC(=O)CCCC(=O)O)C(C)(C)[C@@H]5CC[C@]43C)[C@@H]12` yielded an IC50 [1] of 18.3 µM and an IC50 [2] of 20.4 µM.

`C=C(C)[C@@H]1CC[C@]2(C(=O)OCc3cn([C@H]4C[C@H](n5cc(C)c(=O)[nH]c5=O)O[C@@H]4CO)nn3)CC[C@]3(C)[C@H](CC[C@@H]4[C@@]5(C)CC[C@H](OC(=O)CC(C)CC(=O)O)C(C)(C)[C@@H]5CC[C@]43C)[C@@H]12` (stereo partly specified) gave an IC50 [1] of 35.2 µM and an IC50 [2] of 111 µM.

Compound `Cc1cn([C@H]2C[C@H](n3cc(COC(=O)[C@]45CC[C@@H](C)[C@H](C)[C@H]4C4=CC[C@@H]6[C@@]7(C)CC[C@H](O)C(C)(C)[C@@H]7CC[C@@]6(C)[C@]4(C)CC5)nn3)[C@@H](CO)O2)c(=O)[nH]c1=O` has an IC50 [1] of 34 µM and an IC50 [2] of 28.5 µM.

`Cc1cn([C@H]2C[C@H](n3cc(COC(=O)[C@]45CCC(C)(C)C[C@H]4C4=CC[C@@H]6[C@@]7(C)CC[C@H](O)C(C)(C)[C@@H]7CC[C@@]6(C)[C@]4(C)CC5)nn3)[C@@H](CO)O2)c(=O)[nH]c1=O` was tested, and the IC50 [1] was 7.4 µM and the IC50 [2] was 6.3 µM.

Compound `C#CCOC(=O)[C@]12CC[C@@H](C(=C)C)[C@@H]1[C@H]1CC[C@@H]3[C@@]4(C)CCC(=O)[C@H](C)[C@@H]4CC[C@@]3(C)[C@]1(C)CC2` has an IC50 [1] of over 267 µM and an IC50 [2] of over 267 µM.

`C#CCOC(=O)[C@]12CC[C@@H](C(=C)C)[C@@H]1[C@H]1CC(=O)[C@@H]3[C@@]4(C)CCC(=O)[C@H](C)[C@@H]4CC[C@@]3(C)[C@]1(C)CC2` was tested, and the IC50 [1] was 59.5 µM and the IC50 [2] was 63.9 µM.

Work on `C=C(C)[C@@H]1CC[C@]2(C(=O)OCc3cn([C@H]4C[C@H](n5cc(C)c(=O)[nH]c5=O)O[C@@H]4CO)nn3)CC[C@]3(C)[C@H](CC[C@@H]4[C@@]5(C)CCC(=O)[C@H](C)[C@@H]5CC[C@]43C)[C@@H]12` yielded an IC50 [1] of over 172 µM and an IC50 [2] of over 172 µM.

Compound `C=C(C)[C@@H]1CC[C@]2(C(=O)OCc3cn([C@H]4C[C@H](n5cc(C)c(=O)[nH]c5=O)O[C@@H]4CO)nn3)CC[C@]3(C)[C@H](CC(=O)[C@@H]4[C@@]5(C)CCC(=O)[C@H](C)[C@@H]5CC[C@]43C)[C@@H]12` has an IC50 [1] of over 168 µM and an IC50 [2] of over 168 µM.

In the case of `C#CCOC(=O)[C@]12CC[C@@H](C(=C)C)[C@@H]1[C@H]1CC[C@@H]3[C@@]4(C)CC[C@H](O)[C@H](C)[C@@H]4CC[C@@]3(C)[C@]1(C)CC2`, the IC50 [1] is reported as 133 µM and the IC50 [2] is reported as 40 µM.

`C#CCOC(=O)[C@]12CC[C@@H](C(=C)C)[C@@H]1[C@H]1CC[C@@H]3[C@@]4(C)CC[C@H](OC(=O)CCC(=O)O)[C@H](C)[C@@H]4CC[C@@]3(C)[C@]1(C)CC2` was tested, and the IC50 [1] was 11.4 µM and the IC50 [2] was 10.6 µM.

`C#CCOC(=O)[C@]12CC[C@@H](C(=C)C)[C@@H]1[C@H]1CC[C@@H]3[C@@]4(C)CC[C@H](OCCCC(=O)O)[C@H](C)[C@@H]4CC[C@@]3(C)[C@]1(C)CC2` showed an IC50 [1] of 27.3 µM and an IC50 [2] of 9.9 µM.

`C=C(C)[C@@H]1CC[C@]2(C(=O)OCc3cn([C@H]4C[C@H](n5cc(C)c(=O)[nH]c5=O)O[C@@H]4CO)nn3)CC[C@]3(C)[C@H](CC[C@@H]4[C@@]5(C)CC[C@H](OC(=O)CCC(=O)O)[C@H](C)[C@@H]5CC[C@]43C)[C@@H]12` showed an IC50 [1] of 7.8 µM and an IC50 [2] of 7.3 µM.

With `C=C(C)[C@@H]1CC[C@]2(C(=O)OCc3cn([C@H]4C[C@H](n5cc(C)c(=O)[nH]c5=O)O[C@@H]4CO)nn3)CC[C@]3(C)[C@H](CC[C@@H]4[C@@]5(C)CC[C@H](OCCCC(=O)O)[C@H](C)[C@@H]5CC[C@]43C)[C@@H]12` the IC50 [1] was over 148 µM and the IC50 [2] was over 148 µM.

`C=C(C)[C@@H]1CC[C@]2(C(=O)OCc3cn([C@H]4C[C@H](n5cc(C)c(=O)[nH]c5=O)O[C@@H]4CO)nn3)CC[C@]3(C)[C@H](CC[C@@H]4[C@@]5(C)CC[C@H](O)[C@H](C)[C@@H]5CC[C@]43C)[C@@H]12` was tested, and the IC50 [1] was 7.3 µM and the IC50 [2] was 34 µM.

Work on `C=C(C)[C@@H]1CC[C@]2(C(=O)O)CC[C@]3(C)[C@H](C[C@@H](O)[C@@H]4[C@@]5(C)CCC(=O)[C@@H](C)[C@@H]5CC[C@]43C)[C@@H]12` yielded an IC50 [1] of 58 µM and an IC50 [2] of 46.8 µM.

Compound `C#CCOC(=O)[C@]12CC[C@@H](C(=C)C)[C@@H]1[C@H]1C[C@@H](O)[C@@H]3[C@@]4(C)CCC(=O)[C@@H](C)[C@@H]4CC[C@@]3(C)[C@]1(C)CC2` has an IC50 [1] of 39.6 µM and an IC50 [2] of 21.9 µM.

Work on `C=C(C)[C@@H]1CC[C@]2(C(=O)OCc3cn([C@H]4C[C@H](n5cc(C)c(=O)[nH]c5=O)O[C@@H]4CO)nn3)CC[C@]3(C)[C@H](C[C@@H](O)[C@@H]4[C@@]5(C)CCC(=O)[C@@H](C)[C@@H]5CC[C@]43C)[C@@H]12` yielded an IC50 [1] of 8.5 µM and an IC50 [2] of 136 µM.

`C=C(C)[C@@H]1CC[C@]2(C(=O)O)CC[C@]3(C)[C@H](C[C@@H](O)[C@@H]4[C@@]5(C)CC[C@@H](O)[C@@](C)(C(=O)O)[C@@H]5CC[C@]43C)[C@@H]12` showed an IC50 [1] of over 255 µM and an IC50 [2] of over 255 µM.

Work on `C#CCOC(=O)[C@]12CCC(C)(C)C[C@H]1C1=CC[C@@H]3[C@@]4(C)CC[C@H](O)C(C)(C)[C@@H]4CC[C@@]3(C)[C@]1(C)CC2` [3BETA-HYDROXY-OLEN-12-EN-28-PROPARGYLATE] yielded an IC50 [1] of over 259 µM and an IC50 [2] of 38.4 µM.

`C#CCOC(=O)[C@]12CC[C@@H](C)[C@H](C)[C@H]1C1=CC[C@@H]3[C@@]4(C)CC[C@H](O)C(C)(C)[C@@H]4CC[C@@]3(C)[C@]1(C)CC2` [3BETA-HYDROXY-URS-12-EN-28-PROPARGYLATE] gave an IC50 [1] of 36.5 µM and an IC50 [2] of 38 µM.

For `C=C(C)[C@@H]1CC[C@]2(C(=O)O)CC[C@]3(C)[C@H](CC[C@@H]4[C@@]5(C)CC[C@H](O)C(C)(C)[C@@H]5CC[C@]43C)[C@@H]12` [BETULINIC ACID], the IC50 [1] was 23.9 µM and the IC50 [2] was 27.5 µM.

Work on `Cc1c2ccncc2c(C)c2c1[nH]c1ccccc12` [ELLIPTECINE] yielded an IC50 [1] of 1.2 µM and an IC50 [2] of 1.2 µM.

Work on `CC1(C)CC[C@]2(C(=O)O)CC[C@]3(C)C(=CC[C@@H]4[C@@]5(C)CC[C@H](O)C(C)(C)[C@@H]5CC[C@]43C)[C@@H]2C1` [OLEANOLIC_ACID] yielded an IC50 [1] of over 280 µM and an IC50 [2] of over 280 µM.

Compound `C[C@H]1[C@H](C)CC[C@]2(C(=O)O)CC[C@]3(C)C(=CC[C@@H]4[C@@]5(C)CC[C@H](O)C(C)(C)[C@@H]5CC[C@]43C)[C@H]12` [URSOLIC ACID] has an IC50 [1] of 42.9 µM and an IC50 [2] of 31.5 µM.

`Cc1cn([C@H]2C[C@H](N=[N+]=[N-])[C@@H](CO)O2)c(=O)[nH]c1=O` [ZIDOVUDINE] showed an IC50 [1] of over 479 µM and an IC50 [2] of over 479 µM.
